≈ marks a conversion by molar mass, not a printed value. Like-named read-outs stand apart in the source and are kept apart here.
Assays:
P. aeruginosa PAO1 [1] = test: MIC assay in the presence of a bacterial efflux pump inhibitor (EPI); format: cell-based, Pseudomonas aeruginosa
Experimental: The ability of a compound to produce an antibiotic effect can be determined using a method as described in Example 42. […] MIC assays were conducted in accordance with Clinical and Laboratory Standards Institute (CLSI) guidelines for broth microdilution. A 96-well plate containing cation-adjusted Mueller-Hinton (CAMH broth with 2-fold serial dilution of compounds was inoculated with log-phase bacterial at 5×10^5 CFU/mL. The final volume in each well was 100 μL. Each compound was tested in duplicate. The microtiter plates were incubated in an aerobic environment for 18 hours at 37° C. Then the bacterial growth was tested by reading the plate with a VersaMax plate reader (Molecular Devices, Inc.) at 600 nm. The MIC was defined as the lowest compound concentration that inhibited 90% of bacteria growth. MIC Assays in the Presence of a Bacterial Efflux Inhibitor The EPI assay for the purposes of these studies represents a MIC assay in which the MIC of the antibiotic against the bacteria is tested in the presence of an experimental efflux pump inhibitor (EPI). The highest concentration of the EPI present in the assay typically is ½ of the intrinsic MIC of the compound. […] Using serial dilutions of the EPI, its enhancement of antibiotic activity was then evaluated. The relative EPI activity was decided by comparing the MIC of the antibiotic in the presence of the EPI compound with the intrinsic MIC of the antibiotic alone. For comparative purposes, we generally used EPIs at concentration of 12.5 and 6.25 μg/ml against varying concentration of our test antibiotic.

E. coli 25922 = test: Intrinsic MIC assay (CLSI broth microdilution); format: cell-based, Escherichia coli; conditions: read-out: Antibiotic Activity Against E. coli Intrinsic MIC
Excerpt: As used herein, the term “minimum inhibitory concentration (MIC)” refers to the lowest concentration of a compound (e.g., an antibiotic) that prevents visible growth of a bacterium. Assays for measuring the MIC of a compound are known in the art, for example, as described herein. As used herein, the term “intrinsic MIC” refers the MIC of a compound (e.g., an antibiotic) for the particular bacterial species that has not been pre-exposed to the compound. Intrinsic MIC Assays MIC assays were conducted in accordance with Clinical and Laboratory Standards Institute (CLSI) guidelines for broth microdilution. A 96-well plate containing cation-adjusted Mueller-Hinton (CAMH broth with 2-fold serial dilution of compounds was inoculated with log-phase bacterial at 5×10^5 CFU/mL. The final volume in each well was 100 μL. Each compound was tested in duplicate. The microtiter plates were incubated in an aerobic environment for 18 hours at 37° C. Then the bacterial growth was tested by reading the plate with a VersaMax plate reader (Molecular Devices, Inc.) at 600 nm. The MIC was defined as the lowest compound concentration that inhibited 90% of bacteria growth. The intrinsic MIC of the experimental EPIs was tested with the method described. […] The following Gram-negative bacterial strains were included in these assays: Escherichia coli ATCC 25922

P. aeruginosa PAO1 [2] = test: Intrinsic MIC assay (CLSI broth microdilution); format: cell-based; conditions: Pseudomonas aeruginosa, read-out: Antibiotic Activity Against P. aeruginosa Intrinsic MIC
Excerpt: As used herein, the term “minimum inhibitory concentration (MIC)” refers to the lowest concentration of a compound (e.g., an antibiotic) that prevents visible growth of a bacterium. Assays for measuring the MIC of a compound are known in the art, for example, as described herein. As used herein, the term “intrinsic MIC” refers the MIC of a compound (e.g., an antibiotic) for the particular bacterial species that has not been pre-exposed to the compound. Intrinsic MIC Assays MIC assays were conducted in accordance with Clinical and Laboratory Standards Institute (CLSI) guidelines for broth microdilution. A 96-well plate containing cation-adjusted Mueller-Hinton (CAMH broth with 2-fold serial dilution of compounds was inoculated with log-phase bacterial at 5×10^5 CFU/mL. The final volume in each well was 100 μL. Each compound was tested in duplicate. The microtiter plates were incubated in an aerobic environment for 18 hours at 37° C. Then the bacterial growth was tested by reading the plate with a VersaMax plate reader (Molecular Devices, Inc.) at 600 nm. The MIC was defined as the lowest compound concentration that inhibited 90% of bacteria growth. The intrinsic MIC of the experimental EPIs was tested with the method described. […] The following Gram-negative bacterial strains were included in these assays: Pseudomonas aeruginosa PAO1

[3] = P. aeruginosa PAO1, fold enhancement with 12.5 ug/ml EPI
[4] = P. aeruginosa PAO1, with 12.5 ug/ml of EPI (2S,4R)-4-(ammoniomethyl)-2-((6-(4-fluorophenyl)-1H-indole-2-carboxamido)methyl)pyrrolidin-1-ium
[5] = Escherichia coli, 18 h, E. coli 25922, compound alone, without EPI
[6] = 18 h, P. aeruginosa PAO1, compound alone, without EPI, MIC = lowest concentration inhibiting 90% of growth

## NC1CCCc2c1[nH]c1ccc(-c3ccc(F)cc3)cc21 (stereo not drawn) [Example 2, 6-(4-Fluorophenyl)-2,3,4,9-tetrahydro-1H-carbazol-1-amine]
P. aeruginosa PAO1 [1]; [3]
  Enhancement (intrinsic MIC versus MIC with EPI): (64x)
P. aeruginosa PAO1 [1]; [4]
  Antibiotic Activity Against P. aeruginosa MIC with EPI: 4 µg/mL
E. coli 25922; [5]
  MIC: 16 µg/mL (≈ 57.1 µM)
P. aeruginosa PAO1 [2]; [6]
  MIC: 256 µg/mL (≈ 913 µM)

## NCCNC(=O)C1Cc2c([nH]c3ccc(Br)cc23)C(N)C1 (stereo not drawn) [Example 32, 1-Amino-N-(2-aminoethyl)-6-bromo-2,3,4,9-tetrahydro-1H-carb azole-3-carboxamide]
P. aeruginosa PAO1 [1]; [3]
  Enhancement (intrinsic MIC versus MIC with EPI): (1x)
P. aeruginosa PAO1 [1]; [4]
  Antibiotic Activity Against P. aeruginosa MIC with EPI: >256 µg/mL
E. coli 25922; [5]
  MIC: > 256 µg/mL
P. aeruginosa PAO1 [2]; [6]
  MIC: > 256 µg/mL

## CC(C)C1CCC(N)c2[nH]c3ccc(Br)cc3c21.Cl (stereo not drawn) [Example 25, 6-Bromo-4-isopropyl-2,3,4,9-tetrahydro-1H-carbazol-1-amine Hydrogen Chloride Salt]
P. aeruginosa PAO1 [1]
  Antibiotic Activity Against P. aeruginosa MIC with EPI: 16 µg/mL
  Enhancement (intrinsic MIC versus MIC with EPI): (4x)
E. coli 25922; Escherichia coli, 25922, 18 h
  MIC: 8 µg/mL
P. aeruginosa PAO1 [2]; PAO1, 18 h
  MIC: 64 µg/mL

## CC(C)C1Cc2c([nH]c3ccc(Cl)c(Cl)c23)C(N)C1 (stereo not drawn) [Example 37, 5,6-Dichloro-3-isopropyl-2,3,4,9-tetrahydro-1H-carbazol-1-amine]
P. aeruginosa PAO1 [1]; [3]
  Enhancement (intrinsic MIC versus MIC with EPI): (32x)
P. aeruginosa PAO1 [1]; [4]
  Antibiotic Activity Against P. aeruginosa MIC with EPI: 4 µg/mL
E. coli 25922; [5]
  MIC: 4 µg/mL (≈ 13.5 µM)
P. aeruginosa PAO1 [2]; [6]
  MIC: 128 µg/mL (≈ 431 µM)

## NC1CCCc2c1[nH]c1ccc(Cl)cc21 (stereo not drawn) [Example 13, 6-Chloro-2,3,4,9-tetrahydro-1H-carbazol-1-amine]
P. aeruginosa PAO1 [1]; [3]
  Enhancement (intrinsic MIC versus MIC with EPI): (16x)
P. aeruginosa PAO1 [1]; [4]
  Antibiotic Activity Against P. aeruginosa MIC with EPI: 1 µg/mL
E. coli 25922; [5]
  MIC: 16 µg/mL (≈ 72.5 µM)
P. aeruginosa PAO1 [2]; [6]
  MIC: 128 µg/mL (≈ 580 µM)

## NCCNC1CCCc2c1[nH]c1ccc(Br)cc21 (stereo not drawn) [Example 39, N^1-(6-bromo-2,3,4,9-tetrahydro-1H-carbazol-1-yl)ethane-1,2-diamine]
P. aeruginosa PAO1 [1]; [4]
  Antibiotic Activity Against P. aeruginosa MIC with EPI: 16 µg/mL
E. coli 25922; [5]
  MIC: 16 µg/mL (≈ 51.9 µM)
P. aeruginosa PAO1 [2]; [6]
  MIC: 32 µg/mL (≈ 104 µM)

## CNC1CCCc2c1[nH]c1ccc(Br)cc21 (stereo not drawn) [Example 7, 6-Bromo-N-methyl-2,3,4,9-tetrahydro-1H-carbazol-1-amine]
P. aeruginosa PAO1 [1]; [3]
  Enhancement (intrinsic MIC versus MIC with EPI): (32x)
P. aeruginosa PAO1 [1]; [4]
  Antibiotic Activity Against P. aeruginosa MIC with EPI: 8 µg/mL
E. coli 25922; [5]
  MIC: 32 µg/mL (≈ 115 µM)
P. aeruginosa PAO1 [2]; [6]
  MIC: 256 µg/mL (≈ 917 µM)

## NC1CCCc2c1[nH]c1ccc(-c3ccc(C(F)(F)F)cc3)cc21 (stereo not drawn) [Example 4, 6-(4-(Trifluoromethyl)phenyl)-2,3,4,9-tetrahydro-1H-carbazol-1-amine]
P. aeruginosa PAO1 [1]; [3]
  Enhancement (intrinsic MIC versus MIC with EPI): (>64x)
P. aeruginosa PAO1 [1]; [4]
  Antibiotic Activity Against P. aeruginosa MIC with EPI: 4 µg/mL
E. coli 25922; [5]
  MIC: 16 µg/mL (≈ 48.4 µM)
P. aeruginosa PAO1 [2]; [6]
  MIC: > 256 µg/mL

## COc1ccc(-c2ccc3[nH]c4c(c3c2)CCCC4N)cc1 (stereo not drawn) [Example 3, 6-(4-Methoxyphenyl)-2,3,4,9-tetrahydro-1H-carbazol-1-amine]
P. aeruginosa PAO1 [1]; [3]
  Enhancement (intrinsic MIC versus MIC with EPI): (>16x)
P. aeruginosa PAO1 [1]; [4]
  Antibiotic Activity Against P. aeruginosa MIC with EPI: 16 µg/mL
E. coli 25922; [5]
  MIC: 32 µg/mL (≈ 109 µM)
P. aeruginosa PAO1 [2]; [6]
  MIC: > 256 µg/mL

## NC1CCCc2c1[nH]c1c(Br)cccc21 (stereo not drawn) [Example 17, 8-Bromo-2,3,4,9-tetrahydro-1H-carbazol-1-amine]
P. aeruginosa PAO1 [1]; [3]
  Enhancement (intrinsic MIC versus MIC with EPI): (>2x)
P. aeruginosa PAO1 [1]; [4]
  Antibiotic Activity Against P. aeruginosa MIC with EPI: 128 µg/mL
E. coli 25922; [5]
  MIC: 64 µg/mL (≈ 241 µM)
P. aeruginosa PAO1 [2]; [6]
  MIC: > 256 µg/mL

## NC1CC(CN2CCOCC2)Cc2c1[nH]c1ccc(Br)cc21 (stereo not drawn) [Example 31, 6-Bromo-3-(morpholinomethyl)-2,3,4,9-tetrahydro-1H-carbazol-1-amine]
P. aeruginosa PAO1 [1]; [3]
  Enhancement (intrinsic MIC versus MIC with EPI): (4x)
P. aeruginosa PAO1 [1]; [4]
  Antibiotic Activity Against P. aeruginosa MIC with EPI: 64 µg/mL
E. coli 25922; [5]
  MIC: 64 µg/mL (≈ 176 µM)
P. aeruginosa PAO1 [2]; [6]
  MIC: 256 µg/mL (≈ 703 µM)

## NC1CCCc2c1[nH]c1ccc(Cl)c(Cl)c21 (stereo not drawn) [Example 22, 5,6-Dichloro-2,3,4,9-tetrahydro-1H-carbazol-1-amine]
P. aeruginosa PAO1 [1]; [3]
  Enhancement (intrinsic MIC versus MIC with EPI): (>256x)
P. aeruginosa PAO1 [1]; [4]
  Antibiotic Activity Against P. aeruginosa MIC with EPI: <0.125 µg/mL
E. coli 25922; [5]
  MIC: 4 µg/mL (≈ 15.7 µM)
P. aeruginosa PAO1 [2]; [6]
  MIC: 32 µg/mL (≈ 125 µM)

## NC1CC(CO)Cc2c1[nH]c1ccc(Br)cc21 (stereo not drawn) [Example 29, (1-Amino-6-bromo-2,3,4,9-tetrahydro-1H-carbazol-3-yl)methanol]
P. aeruginosa PAO1 [1]; [3]
  Enhancement (intrinsic MIC versus MIC with EPI): (8x)
P. aeruginosa PAO1 [1]; [4]
  Antibiotic Activity Against P. aeruginosa MIC with EPI: 32 µg/mL
E. coli 25922; [5]
  MIC: 64 µg/mL (≈ 217 µM)
P. aeruginosa PAO1 [2]; [6]
  MIC: 256 µg/mL (≈ 867 µM)

## NC1CCCc2c1[nH]c1cc(Cl)c(Cl)cc21 (stereo not drawn) [Example 21, 6,7-Dichloro-2,3,4,9-tetrahydro-1H-carbazol-1-amine]
P. aeruginosa PAO1 [1]; [3]
  Enhancement (intrinsic MIC versus MIC with EPI): (16x)
P. aeruginosa PAO1 [1]; [4]
  Antibiotic Activity Against P. aeruginosa MIC with EPI: 4 µg/mL
E. coli 25922; [5]
  MIC: 8 µg/mL (≈ 31.4 µM)
P. aeruginosa PAO1 [2]; [6]
  MIC: 64 µg/mL (≈ 251 µM)

## Cl.NC1c2[nH]c3ccc(Br)cc3c2CCC1F (stereo not drawn) [Example 20, 6-Bromo-2-fluoro-2,3,4,9-tetrahydro-1H-carbazol-1-amine Hydrogen Chloride Salt]
P. aeruginosa PAO1 [1]; [3]
  Enhancement (intrinsic MIC versus MIC with EPI): (>8x)
P. aeruginosa PAO1 [1]; [4]
  Antibiotic Activity Against P. aeruginosa MIC with EPI: 32 µg/mL
E. coli 25922; [5]
  MIC: 64 µg/mL
P. aeruginosa PAO1 [2]; [6]
  MIC: > 256 µg/mL

## Cn1c2c(c3cc(Br)ccc31)CCCC2N (stereo not drawn) [Example 19, 6-Bromo-9-methyl-2,3,4,9-tetrahydro-1H-carbazol-1-amine]
P. aeruginosa PAO1 [1]; [3]
  Enhancement (intrinsic MIC versus MIC with EPI): (4x)
P. aeruginosa PAO1 [1]; [4]
  Antibiotic Activity Against P. aeruginosa MIC with EPI: 64 µg/mL
E. coli 25922; [5]
  MIC: 64 µg/mL (≈ 229 µM)
P. aeruginosa PAO1 [2]; [6]
  MIC: 256 µg/mL (≈ 917 µM)

## O=C(NC1CCCc2c1[nH]c1ccc(Br)cc21)c1ccccc1 (stereo not drawn) [Example 9, N-(6-Bromo-2,3,4,9-tetrahydro-1H-carbazol-1-yl)benzamide]
P. aeruginosa PAO1 [1]; [3]
  Enhancement (intrinsic MIC versus MIC with EPI): (4x)
P. aeruginosa PAO1 [1]; [4]
  Antibiotic Activity Against P. aeruginosa MIC with EPI: >64 µg/mL
E. coli 25922; [5]
  MIC: > 256 µg/mL
P. aeruginosa PAO1 [2]; [6]
  MIC: > 256 µg/mL

## CC1(C)Cc2c([nH]c3ccc(Br)cc23)C(N)C1 (stereo not drawn) [Example 26, 6-Bromo-3,3-dimethyl-2,3,4,9-tetrahydro-1H-carbazol-1-amine]
P. aeruginosa PAO1 [1]; [3]
  Enhancement (intrinsic MIC versus MIC with EPI): (16x)
P. aeruginosa PAO1 [1]; [4]
  Antibiotic Activity Against P. aeruginosa MIC with EPI: 4 µg/mL
E. coli 25922; [5]
  MIC: 32 µg/mL (≈ 109 µM)
P. aeruginosa PAO1 [2]; [6]
  MIC: 64 µg/mL (≈ 218 µM)

## CC(C)C1Cc2c([nH]c3cc(Cl)c(Cl)cc23)C(N)C1 (stereo not drawn) [Example 38, 6,7-Dichloro-3-isopropyl-2,3,4,9-tetrahydro-1H-carbazol-1-amine]
P. aeruginosa PAO1 [1]; [3]
  Enhancement (intrinsic MIC versus MIC with EPI): (>64x)
P. aeruginosa PAO1 [1]; [4]
  Antibiotic Activity Against P. aeruginosa MIC with EPI: 4 µg/mL
E. coli 25922; [5]
  MIC: 4 µg/mL (≈ 13.5 µM)
P. aeruginosa PAO1 [2]; [6]
  MIC: > 256 µg/mL
